Results: patent US20250034170A1, “SMALL MOLECULE MODULATORS OF GLUCOCEREBROSIDASE ACTIVITY AND USES THEREOF” (Vanqua Bio, Inc., priority 2021, published 2025)

molecular target: T1, GCase (Homo sapiens, UniProt P04062); assay: activation of GCase in a live cell PFB assay in HELA cells; format: cell-based; settings: EC50 given as range classes
T1 construct: endogenous in cells; host or cells: HeLa cells
T1 sequence (P04062 40-536): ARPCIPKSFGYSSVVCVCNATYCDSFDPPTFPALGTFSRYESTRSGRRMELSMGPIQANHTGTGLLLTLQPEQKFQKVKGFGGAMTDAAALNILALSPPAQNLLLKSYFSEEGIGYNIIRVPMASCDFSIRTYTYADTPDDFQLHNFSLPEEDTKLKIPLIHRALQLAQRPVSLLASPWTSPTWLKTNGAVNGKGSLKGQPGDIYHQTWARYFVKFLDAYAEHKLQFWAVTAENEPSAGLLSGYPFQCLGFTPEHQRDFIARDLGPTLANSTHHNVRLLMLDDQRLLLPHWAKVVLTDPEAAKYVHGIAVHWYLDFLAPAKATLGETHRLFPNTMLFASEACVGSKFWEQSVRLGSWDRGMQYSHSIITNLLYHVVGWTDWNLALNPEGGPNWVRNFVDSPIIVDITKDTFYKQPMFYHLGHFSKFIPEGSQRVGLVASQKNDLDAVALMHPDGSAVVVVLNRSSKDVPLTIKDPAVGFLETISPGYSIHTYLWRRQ
Method: Exemplary compounds were evaluated for activation of GCase in a live cell PFB assay in HELA cells (essentially as described in Ysselstein et al., “LRRK2 kinase activity regulates lysosomal glucocerebrosidase in neurons derived from Parkinson's disease patients” Nature Communications (2019) 10:5570). […] EC50 ranges: A: <10 μM; B: >10-50 μM; C: >50-100 μM; D: >100 μM.

Compound | EC50
Cc1nn(CC(F)F)c2nc(N3CCC4(CCN(c5cc(C(F)(F)F)ccn5)C4)CC3)cnc12 [Compound 178, 8-[1-(2,2-difluoroethyl)-3-methyl-1H-pyrazolo[3,4-b]pyrazin-6-yl]-2-[4-(trifluoromethyl)pyridin-2-yl]-2,8-diazaspiro[4.5]decane] | 10 to 50 µM
FC(F)(F)c1ccnc(N2CCC3(CCN(c4cncc(-c5nncs5)n4)CC3)C2)c1 [Compound 180, 8-[6-(1,3,4-thiadiazol-2-yl)pyrazin-2-yl]-2-[4-(trifluoromethyl)pyridin-2-yl]-2,8-diazaspiro[4.5]decane] | 10 to 50 µM
FC(F)Cn1ncc2ncc(N3CC4(CCN(c5cc(C(F)(F)F)ccn5)C4)C3)nc21 [Compound 181, 2-[1-(2,2-difluoroethyl)-1H-pyrazolo[3,4-b]pyrazin-6-yl]-6-[4-(trifluoromethyl)pyridin-2-yl]-2,6-diazaspiro[3.4]octane] | 10 to 50 µM
FC(F)Cn1ncc2ncc(N3CC4(CCN(c5cccc(C(F)(F)F)n5)C4)C3)nc21 [Compound 185, 2-[1-(2,2-difluoroethyl)-1H-pyrazolo[3,4-b]pyrazin-6-yl]-6-[6-(trifluoromethyl)pyridin-2-yl]-2,6-diazaspiro[3.4]octane] | > 100 µM
FC(F)Cn1ncc2ncc(N3CCC4(CN(c5ccc(C(F)(F)F)cn5)C4)C3)nc21 [Compound 186, 6-[1-(2,2-difluoroethyl)-1H-pyrazolo[3,4-b]pyrazin-6-yl]-2-[5-(trifluoromethyl)pyridin-2-yl]-2,6-diazaspiro[3.4]octane] | 10 to 50 µM
FC(F)Cn1ncc2ncc(NC3CCC4(C3)CN(c3cc(C(F)(F)F)ccn3)C4)nc21 (stereo not shown) [Compound 190, N-[1-(2,2-difluoroethyl)-1H-pyrazolo[3,4-b]pyrazin-6-yl]-2-[4-(trifluoromethyl)pyridin-2-yl]-2-azaspiro[3.4]octan-6-amine] | < 10 µM

Second part, the compound after the results:

EC50 | Compound
10 to 50 µM | Cc1nc2cnn(CC(F)F)c2nc1N1CCC2(CCN(c3cc(C(F)(F)F)ccn3)C2)CC1 [Compound 179, 8-[1-(2,2-difluoroethyl)-5-methyl-1H-pyrazolo[3,4-b]pyrazin-6-yl]-2-[4-(trifluoromethyl)pyridin-2-yl]-2,8-diazaspiro[4.5]decane]
< 10 µM | FC(F)Cn1ncc2ncc(N3CC4(CCN(c5ccc(C(F)(F)F)cn5)C4)C3)nc21 [Compound 182, 2-[1-(2,2-difluoroethyl)-1H-pyrazolo[3,4-b]pyrazin-6-yl]-6-[5-(trifluoromethyl)pyridin-2-yl]-2,6-diazaspiro[3.4]octane]
50 to 100 µM | FC(F)Cn1ncc2ncc(N3CC4(CCN(c5ccc(C(F)(F)F)nc5)C4)C3)nc21 [Compound 183, 2-[1-(2,2-difluoroethyl)-1H-pyrazolo[3,4-b]pyrazin-6-yl]-6-[6-(trifluoromethyl)pyridin-3-yl]-2,6-diazaspiro[3.4]octane]
10 to 50 µM | FC(F)Cn1ncc2ncc(N3CC4(CCN(c5cncc(C(F)(F)F)c5)C4)C3)nc21 [Compound 184, 2-[1-(2,2-difluoroethyl)-1H-pyrazolo[3,4-b]pyrazin-6-yl]-6-[5-(trifluoromethyl)pyridin-3-yl]-2,6-diazaspiro[3.4]octane]
10 to 50 µM | FC(F)Cn1ncc2ncc(N3CCC4(CN(c5cc(C(F)(F)F)ccn5)C4)C3)nc21 [Compound 187, 6-[1-(2,2-difluoroethyl)-1H-pyrazolo[3,4-b]pyrazin-6-yl]-2-[4-(trifluoromethyl)pyridin-2-yl]-2,6-diazaspiro[3.4]octane]
> 100 µM | FC(F)Cn1ncc2ncc(N3CCC4(CCCN4c4ccnc(C(F)(F)F)c4)C3)nc21 (stereo not shown) [Compound 188, 7-[1-(2,2-difluoroethyl)-1H-pyrazolo[3,4-b]pyrazin-6-yl]-1-[2-(trifluoromethyl)pyridin-4-yl]-1,7-diazaspiro[4.4]nonane]
< 10 µM | FC(F)Cn1ncc2ncc(NC3CCC4(C3)CN(c3ccc(C(F)(F)F)nc3)C4)nc21 (stereo not shown) [Compound 189, N-[1-(2,2-difluoroethyl)-1H-pyrazolo[3,4-b]pyrazin-6-yl]-2-[6-(trifluoromethyl)pyridin-3-yl]-2-azaspiro[3.4]octan-6-amine]
